From the supplement of paper PMC11451515

Tests used:
Conditions in all cases: 48 h
[1] = tested on: P12-Ichikawa; test: AUC of viability dose-response curve (% viability x log10 dose units); higher = less sensitive
Outline: (§1)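 Leukemia cells adapted to each medium were seeded at 500 or 1000 cells/well in 1536-well plates and dosed with library compounds in DMSO at 11 threefold doses from 47 μM to 0.79 nM for 48 h at 37°C. CellTiter-Glo One luminescence was normalised per plate to DMSO and cell-free wells, then fitted with a four-parameter log-logistic model over log10 doses. Area under the curve was taken from this fit by the trapezoidal rule, with curves above full viability scaled and curves failing quality control removed.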

[2] = tested on: NOMO1; test: as above
Outline: as §1

[3] = tested on: SEM cells; test: as above
Outline: as §1

[4] = tested on: SEM cells; test: cell viability relative to DMSO control; higher = less cytotoxic
Outline: (§2)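 Viability, reported as a per-plate percentage of DMSO wells with cell-free wells as background, came from CellTiter-Glo One luminescence. Reading took place after 48 h at 37°C. Before that, NOMO1 or SEM (500 cells/well) or P12-Ichikawa (1000 cells/well) leukemia cells, adapted for at least four passages in each medium, were seeded in 1536-well plates (5 μl) and pin-dosed with library compounds in DMSO, 47 μM to 0.79 nM over 11 threefold points.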

[5] = tested on: P12-Ichikawa; test: as above
Outline: as §2

[6] = tested on: NOMO1; test: as above
Outline: as §2

OC[C@H]1O[C@H](C[C@@H]1O)[N]2C=NC3=C2\N=C/NC[C@H]3O
AUC of viability dose-response curve
Conditions	[1]	[2]	[3]
HPLM + 10% dialyzed FBS	457	444	450
RPMI 5 mM glucose + 10% FBS	457	465	466
RPMI 5 mM glucose + 10% dialyzed FBS	475	434	469

NCC1(CC(=O)O)CCCCC1
cell viability [%], [4]
Conditions	HPLM + 10% dialyzed FBS	RPMI 5 mM glucose + 10% dialyzed FBS
0.000781 µM	102	126
0.00234 µM	113	122
0.00702 µM	107	113
0.0211 µM	122	119
0.0632 µM	120	124
0.19 µM	130	117
0.569 µM	96.2	78
1.71 µM	59.5	59.1
5.12 µM	121	140
15.4 µM	127	136
46.1 µM	132	112

AUC of viability dose-response curve
Conditions	[1]	[2]	[3]
HPLM + 10% dialyzed FBS	466	468	460
RPMI 5 mM glucose + 10% FBS	434	442	475
RPMI 5 mM glucose + 10% dialyzed FBS	459	458	459

C[C@@H]\1COC(=N1)\NC2=CC3=C(C=C2)N=CN=C3NC4=CC(=C(OCC5=NC=CS5)C=C4)Cl
AUC of viability dose-response curve
Conditions	[1]	[2]	[3]
HPLM + 10% dialyzed FBS	455	454	461
RPMI 5 mM glucose + 10% FBS	447	447	457
RPMI 5 mM glucose + 10% dialyzed FBS	449	463	457

CCCc1nc(C(C)(C)O)c(C(=O)O)n1Cc1ccc(-c2ccccc2-c2nn[nH]n2)cc1
cell viability [%]
Conditions	[4]	[5]	[6]
HPLM + 10% dialyzed FBS, 0.000781 µM	104	111	97.7
HPLM + 10% dialyzed FBS, 0.00234 µM	116	115	111
HPLM + 10% dialyzed FBS, 0.00702 µM	97.3	112	107
HPLM + 10% dialyzed FBS, 0.0211 µM	112	117	114
HPLM + 10% dialyzed FBS, 0.0632 µM	119	115	119
HPLM + 10% dialyzed FBS, 0.19 µM	116	125	120
HPLM + 10% dialyzed FBS, 0.569 µM	58.6	120	149
HPLM + 10% dialyzed FBS, 1.71 µM	60	119	115
HPLM + 10% dialyzed FBS, 5.12 µM	118	122	113
HPLM + 10% dialyzed FBS, 15.4 µM	120	125	119
HPLM + 10% dialyzed FBS, 46.1 µM	110	128	126
RPMI 5 mM glucose + 10% FBS, 0.000781 µM	76.4	109	107
RPMI 5 mM glucose + 10% FBS, 0.00234 µM	88.1	114	103
RPMI 5 mM glucose + 10% FBS, 0.00702 µM	69.3	102	105
RPMI 5 mM glucose + 10% FBS, 0.0211 µM	76.7	110	110
RPMI 5 mM glucose + 10% FBS, 0.0632 µM	84.5	116	105
RPMI 5 mM glucose + 10% FBS, 0.19 µM	76.5	130	125
RPMI 5 mM glucose + 10% FBS, 0.569 µM	69	124	123
RPMI 5 mM glucose + 10% FBS, 1.71 µM	46.8	123	113
RPMI 5 mM glucose + 10% FBS, 5.12 µM	79.2	126	112
RPMI 5 mM glucose + 10% FBS, 15.4 µM	82.6	138	114
RPMI 5 mM glucose + 10% FBS, 46.1 µM	62.3	109	124
RPMI 5 mM glucose + 10% dialyzed FBS, 0.000781 µM	96	103	106
RPMI 5 mM glucose + 10% dialyzed FBS, 0.00234 µM	104	70.5	104
RPMI 5 mM glucose + 10% dialyzed FBS, 0.00702 µM	109	107	115
RPMI 5 mM glucose + 10% dialyzed FBS, 0.0211 µM	98.5	107	116
RPMI 5 mM glucose + 10% dialyzed FBS, 0.0632 µM	104	117	114
RPMI 5 mM glucose + 10% dialyzed FBS, 0.19 µM	109	118	117
RPMI 5 mM glucose + 10% dialyzed FBS, 0.569 µM	90.3	116	124
RPMI 5 mM glucose + 10% dialyzed FBS, 1.71 µM	56	117	113
RPMI 5 mM glucose + 10% dialyzed FBS, 5.12 µM	103	118	128
RPMI 5 mM glucose + 10% dialyzed FBS, 15.4 µM	105	128	126
RPMI 5 mM glucose + 10% dialyzed FBS, 46.1 µM	103	135	112

AUC of viability dose-response curve
Conditions	HPLM + 10% dialyzed FBS	RPMI 5 mM glucose + 10% FBS	RPMI 5 mM glucose + 10% dialyzed FBS
[1]	448	452	413
[2]	439	454	461

O=C1c2c(O)cc(O)cc2O[C@H](c2ccc(O)c(O)c2)[C@H]1O
cell viability [%], [4]
Conditions	HPLM + 10% dialyzed FBS	RPMI 5 mM glucose + 10% FBS
0.000781 µM	113	121
0.00234 µM	120	123
0.00702 µM	132	136
0.0211 µM	113	150
0.0632 µM	117	126
0.19 µM	125	126
0.569 µM	127	122
1.71 µM	143	122
5.12 µM	126	127
15.4 µM	127	125
46.1 µM	131	128

AUC of viability dose-response curve
Conditions	[1]	[2]	[3]
HPLM + 10% dialyzed FBS	459	469	454
RPMI 5 mM glucose + 10% FBS	453	475	470
RPMI 5 mM glucose + 10% dialyzed FBS	465	453	450

CC(=O)O[C@H]1C[C@@H]2CC[C@@H]3[C@H](CC[C@@]4(C)[C@H]3C[C@H]([N+]3(C)CCCCC3)[C@@H]4OC(C)=O)[C@@]2(C)C[C@@H]1[N+]1(C)CCCCC1
Conditions	cell viability [%]
[4], HPLM + 10% dialyzed FBS, 0.000781 µM	110
[4], HPLM + 10% dialyzed FBS, 0.00234 µM	110
[4], HPLM + 10% dialyzed FBS, 0.00702 µM	119
[4], HPLM + 10% dialyzed FBS, 0.0211 µM	126
[4], HPLM + 10% dialyzed FBS, 0.0632 µM	108
[4], HPLM + 10% dialyzed FBS, 0.19 µM	108
[4], HPLM + 10% dialyzed FBS, 0.569 µM	115
[4], HPLM + 10% dialyzed FBS, 1.71 µM	121
[4], HPLM + 10% dialyzed FBS, 5.12 µM	109
[4], HPLM + 10% dialyzed FBS, 15.4 µM	110
[4], HPLM + 10% dialyzed FBS, 46.1 µM	117
[5], RPMI 5 mM glucose + 10% dialyzed FBS, 0.000781 µM	123
[5], RPMI 5 mM glucose + 10% dialyzed FBS, 0.00234 µM	134
[5], RPMI 5 mM glucose + 10% dialyzed FBS, 0.00702 µM	121
[5], RPMI 5 mM glucose + 10% dialyzed FBS, 0.0211 µM	124
[5], RPMI 5 mM glucose + 10% dialyzed FBS, 0.0632 µM	132
[5], RPMI 5 mM glucose + 10% dialyzed FBS, 0.19 µM	125
[5], RPMI 5 mM glucose + 10% dialyzed FBS, 0.569 µM	127
[5], RPMI 5 mM glucose + 10% dialyzed FBS, 1.71 µM	117
[5], RPMI 5 mM glucose + 10% dialyzed FBS, 5.12 µM	125
[5], RPMI 5 mM glucose + 10% dialyzed FBS, 15.4 µM	117
[5], RPMI 5 mM glucose + 10% dialyzed FBS, 46.1 µM	113

AUC of viability dose-response curve
Conditions	[1]	[2]	[3]
HPLM + 10% dialyzed FBS	464	459	477
RPMI 5 mM glucose + 10% FBS	457	466	438
RPMI 5 mM glucose + 10% dialyzed FBS	465	472	465

CC(C)N(CCNC(=O)CN1CCCC1=O)C(C)C
AUC of viability dose-response curve
Conditions	[1]	[2]	[3]
HPLM + 10% dialyzed FBS	460	430	477
RPMI 5 mM glucose + 10% FBS	453	456	460
RPMI 5 mM glucose + 10% dialyzed FBS	435	461	476
